Source: patent US20250171556A1, “MULTISPECIFIC ANTIBODIES FOR TREATING CD47-ASSOCIATED DISEASES” (Virtuoso BINco, Inc., priority 2021, published 2025)

Key:
DLD-1 tumor cells = test: DLD-1 colorectal cancer xenograft model; type: in vivo, mouse; conditions: 5 doses, irinotecan 30 mg/kg ip twice per week
Experimental: DLD-1 tumor cells were cultured in RPMI 1640 medium supplemented with 10% FBS at 37° C. in an atmosphere of 5% CO2 in air. Female Balb/c nude mice (Shanghai Lingchang Laboratory Animal Technology Co., Ltd.) of 6-8 weeks in age were inoculated subcutaneously with 5×10^6 cells in 0.1 mL PBS for tumor development. Once the average tumor volume reached approximately 150-200 mm^3, the animals were randomized to 6 animals per group and started treatment. Oxaliplatin and 5-fluorouracil (5-FU) were administered through intraperitoneal injection three times per week at a dose of 8 mg/kg and 35 mg/kg, respectively. A total of 4 doses of oxaliplatin and 5 doses of 5-FU were given. Irinotecan was administered through intraperitoneal injection twice per week at a dose of 30 mg/kg for a total of 6 doses. CD47×EpCAM_v5 bispecific antibody was administered through bolus tail vein injection at 20 mg/kg weekly for a total of 5 doses. For the combination groups, the route and dosing schedule were the same as in the single agent treatment groups. Tumor volume was measured twice weekly.
DLD-1 xenograft model was established as described in Example 13. Treatment was initiated once the average tumor volume reached approximately 150-200 mm^3. Irinotecan was administered through intraperitoneal injection twice per week at a dose of 30 mg/kg for a total of 5 doses. […]

Hep3B2.1-7 tumor cells = test: Hep3B2.1-7 hepatocellular carcinoma xenograft model; type: in vivo, mouse; conditions: CD47×EpCAM_v5 20 mg/kg iv weekly, 4 doses, irinotecan 15 mg/kg ip twice per week
Experimental: Hep3B2.1-7 tumor cells were cultured in EMEM medium supplemented with 10% FBS at 37° C. in an atmosphere containing 5% CO2 in air. Female Balb/c nude mice (Shanghai Lingchang Laboratory Animal Technology Co., Ltd.) of 6-8 weeks in age were inoculated subcutaneously with 8×10^6 cells in 0.1 mL of PBS for tumor development. Once the average tumor volume reached approximately 150-200 mm^3, the animals were randomized to 6 animals per group and started treatment. Irinotecan was administered through intraperitoneal injection twice per week at a dose of 15 mg/kg for a total of 4 doses. CD47×EpCAM_v5 bispecific antibody was administered through bolus tail vein injection at 20 mg/kg weekly for a total of 4 doses. Combination groups followed the same dosing schedule and route of administration as their corresponding monotherapy groups. Tumor volume was measured twice weekly.

SMILES: CCc1c2c(nc3ccc(OC(=O)N4CCC(N5CCCCC5)CC4)cc13)-c1cc3c(c(=O)n1C2)COC(=O)[C@]3(O)CC [irinotecan, reference compound]
- Tumor growth in DLD-1 model, single agent (Example 13) (DLD-1 tumor cells; CD47×EpCAM_v5 20 mg/kg iv weekly, 6 doses): not very effective
- Tumor growth in DLD-1 model, single agent (Example 14) (DLD-1 tumor cells; antibodies 20 mg/kg iv weekly): partial tumor growth inhibition
- Tumor growth in Hep3B2.1-7 model, single agent (Hep3B2.1-7 tumor cells): slowed tumor growth but did not inhibit it
